Reference: ChEMBL document CHEMBL1201862, “PubChem BioAssay data set” (2004)
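Each compound was tested at five concentrations against cells in 96-well plates for 48 hours. Abbreviation: GI50, concentration required for 50% inhibition of growth.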 Activity calls are given as the source filed them. No stated cut-off is given here; in the data, active = GI50 up to about 1.1 µM and inactive = higher.

What was measured:
Test in all cases: NCI tumour cell line growth inhibition, 48 h
[1] = system: HL-60
[2] = system: K562
[3] = system: HCT-116
[4] = system: SN12C
[5] = system: NCI/ADR-RES
[6] = system: SF-295
[7] = system: IGROV-1
[8] = system: SNB-19
[9] = system: HCT-15
[10] = system: KM12
[11] = system: OVCAR-3
[12] = system: U-251
[13] = system: SF-268
[14] = system: UO-31
[15] = system: 786-0
[16] = system: NCI-H522
[17] = system: RPMI-8226
[18] = system: MOLT-4
[19] = system: NCI-H460
[20] = system: DLD-1

Compound	GI50 [1]	GI50 [2]	GI50 [3]	GI50 [4]	GI50 [5]	GI50 [6]	GI50 [7]	GI50 [8]	GI50 [9]	GI50 [10]	GI50 [11]	GI50 [12]	GI50 [13]	GI50 [14]	GI50 [15]	GI50 [16]	GI50 [17]	GI50 [18]	GI50 [19]	GI50 [20]
COc1cccc(-c2cc(O)c3cc(N4CCCC4)ccc3n2)c1	< 0.001 µM (active)	< 0.001 µM (active)	< 0.001 µM (active)	< 0.001 µM (active)	< 0.001 µM (active)	< 0.001 µM (active)	0.005 µM (active)	< 0.001 µM (active)	0.00169 µM	< 0.001 µM (active)	< 0.001 µM (active)	< 0.001 µM (active)	< 0.001 µM (active)	< 0.001 µM (active)	< 0.001 µM (active)	< 0.001 µM (active)	< 0.001 µM (active)	< 0.001 µM (active)	< 0.001 µM (active)	
Cc1ccc(S(=O)(=O)N2CC(CCN)c3ccccc32)cc1 (stereo not given)	> 100 µM (inactive)	4.35 µM (inactive)	2.27 µM (inactive)	2.72 µM (inactive)	5.61 µM (inactive)	4.56 µM (inactive)	3.28 µM (inactive)	4.97 µM (inactive)	4.05 µM	6.03 µM (inactive)	3.36 µM (inactive)	3.72 µM (inactive)	5.31 µM (inactive)	4.61 µM (inactive)	3.89 µM (inactive)	5.87 µM (inactive)	6.01 µM (inactive)	28 µM (inactive)	5.08 µM (inactive)	
CCOP(=O)(OCC)/C(C#N)=C/c1cnc(C)[nH]1	> 100 µM (inactive)	> 100 µM (inactive)	> 100 µM (inactive)	> 100 µM (inactive)	> 100 µM (inactive)	> 100 µM (inactive)	> 100 µM (inactive)	> 100 µM (inactive)	> 100 µM	> 100 µM (inactive)	> 100 µM (inactive)	> 100 µM (inactive)	> 100 µM (inactive)	> 100 µM (inactive)	> 100 µM (inactive)	> 100 µM (inactive)	> 100 µM (inactive)	> 100 µM (inactive)	> 100 µM (inactive)	
Cc1occc1C(=S)Nc1ccc(Cl)c(/C=N/OC(C)C)c1	26.7 µM (inactive)	29.7 µM (inactive)	20.4 µM (inactive)	16.8 µM (inactive)	22.2 µM (inactive)	18.3 µM (inactive)	27.8 µM (inactive)	27.1 µM (inactive)	17.4 µM	20 µM (inactive)	15.6 µM (inactive)	19.5 µM (inactive)	28.1 µM (inactive)	19.4 µM (inactive)	18.5 µM (inactive)	12.7 µM (inactive)	20 µM (inactive)	20.8 µM (inactive)	21 µM (inactive)	
O=c1c2cc(Br)cc(Br)c2[nH]c(=S)n1-c1ccccc1		32.4 µM (inactive)	48.8 µM (inactive)	78.5 µM (inactive)		> 100 µM (inactive)	> 100 µM (inactive)	60.8 µM (inactive)	90.2 µM	> 100 µM (inactive)	60.1 µM (inactive)	85.5 µM (inactive)	52.4 µM (inactive)	40.5 µM (inactive)	99.1 µM (inactive)		28.9 µM (inactive)		> 100 µM (inactive)	> 100 µM (inactive)
CC(C(=O)c1ccccc1)C1(O)C(=O)Nc2ccc(Cl)cc21 (stereo not given)			> 100 µM (inactive)	> 100 µM (inactive)		> 100 µM (inactive)	> 100 µM (inactive)	> 100 µM (inactive)	81.8 µM	> 100 µM (inactive)	37.4 µM (inactive)	53.8 µM (inactive)	> 100 µM (inactive)	0.469 µM (active)	40.3 µM (inactive)		48 µM (inactive)		> 100 µM (inactive)	> 100 µM (inactive)
O=c1cc(N=P(c2ccccc2)(c2ccccc2)c2ccccc2)n(-c2ccccc2)c(=O)n1-c1ccccc1	5.06 µM (inactive)	3.31 µM (inactive)	13.3 µM (inactive)	11.1 µM (inactive)	21.8 µM (inactive)	20.7 µM (inactive)	17.9 µM (inactive)	17.7 µM (inactive)	3.38 µM	14.9 µM (inactive)	8.17 µM (inactive)	8.02 µM (inactive)	29 µM (inactive)	4.92 µM (inactive)	6.3 µM (inactive)	14.4 µM (inactive)	4.92 µM (inactive)	3.48 µM (inactive)	4.15 µM (inactive)	
COCc1nc2c(OC)c(-c3nc4ccc(N5CCN(C)CC5)nc4[nH]3)cc(OC)c2n1C	17.4 µM (inactive)	29.3 µM (inactive)	41.3 µM (inactive)	80 µM (inactive)	55 µM (inactive)	32.1 µM (inactive)	43.8 µM (inactive)	35.4 µM (inactive)	40.9 µM	24 µM (inactive)	53.6 µM (inactive)	21.7 µM (inactive)	45.2 µM (inactive)	22 µM (inactive)	43.7 µM (inactive)	27.4 µM (inactive)	18.7 µM (inactive)	16.4 µM (inactive)	26.4 µM (inactive)	
